Laboratory results taken from PMC3596085 (International journal for parasitology, drugs and drug …, 2012).
Read-outs that look alike come from different tables or passages of the source.

What was measured:
human CYP51 [1] = assay: Reconstitution of CYP51 activity in vitro; assay type: biochemical; settings: 60′ reaction, lanosterol
[2] = system: NIH/3T3 mouse embryonic fibroblasts; assay: Growth inhibition assay using 5-bromodeoxyuridine incorporation; assay type: cell-based; settings: 50 μM, 24 h treatment, BrdU incorporation, vs DMSO
human CYP3A4 [3] = target: T1, human CYP3A4 (Homo sapiens, UniProt P08684)
T1 sequence (P08684 whole entry): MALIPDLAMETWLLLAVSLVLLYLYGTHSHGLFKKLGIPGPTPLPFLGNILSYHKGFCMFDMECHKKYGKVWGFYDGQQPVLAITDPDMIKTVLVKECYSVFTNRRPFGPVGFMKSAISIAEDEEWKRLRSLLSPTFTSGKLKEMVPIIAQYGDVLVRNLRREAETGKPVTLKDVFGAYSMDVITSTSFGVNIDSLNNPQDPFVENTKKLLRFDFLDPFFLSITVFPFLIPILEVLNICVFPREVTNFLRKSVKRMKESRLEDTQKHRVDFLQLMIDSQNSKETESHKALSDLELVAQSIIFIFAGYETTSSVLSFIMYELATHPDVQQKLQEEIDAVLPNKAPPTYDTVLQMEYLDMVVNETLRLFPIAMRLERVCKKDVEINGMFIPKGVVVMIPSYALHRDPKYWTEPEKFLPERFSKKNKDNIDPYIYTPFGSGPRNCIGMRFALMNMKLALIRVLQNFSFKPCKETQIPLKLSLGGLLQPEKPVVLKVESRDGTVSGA

T. cruzi CYP51 [4] = target: T. cruzi CYP51 (Trypanosoma cruzi, UniProt Q7Z1V1); assay: CYP51 spectral titration; assay type: binding
T. cruzi CYP51 (Trypanosoma cruzi, UniProt Q7Z1V1), sequence (Q7Z1V1 whole entry): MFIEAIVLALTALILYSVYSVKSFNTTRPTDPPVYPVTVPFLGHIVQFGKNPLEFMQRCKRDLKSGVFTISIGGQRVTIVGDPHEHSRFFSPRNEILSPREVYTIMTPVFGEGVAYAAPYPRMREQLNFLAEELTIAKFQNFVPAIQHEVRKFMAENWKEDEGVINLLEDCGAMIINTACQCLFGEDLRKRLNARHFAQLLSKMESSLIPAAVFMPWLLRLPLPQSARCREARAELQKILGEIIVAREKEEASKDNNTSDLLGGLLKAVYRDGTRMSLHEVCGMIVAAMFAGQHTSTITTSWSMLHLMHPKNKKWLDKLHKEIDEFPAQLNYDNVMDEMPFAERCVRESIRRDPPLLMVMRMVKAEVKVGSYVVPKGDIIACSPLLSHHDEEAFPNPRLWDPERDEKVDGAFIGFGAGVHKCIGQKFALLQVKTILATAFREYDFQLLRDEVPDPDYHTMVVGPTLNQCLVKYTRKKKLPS

[5] = VNI oral pharmacokinetics in mouse plasma; assay type: in vivo; settings: 25 mg/kg
[6] = Acute mice toxicity study; assay type: in vivo, mouse; settings: female, Swiss Webster, mouse, in vivo, po
[7] = system: Female Swiss Webster mice; assay: Acute mice toxicity study; assay type: in vivo, mouse; settings: oral, up to 400 mg/kg, up to 48 h
T. cruzi CYP51 [8] = settings: standard CYP51 reaction conditions; ref Lepesheva et al., 2007; cited from earlier work
T. brucei CYP51 = settings: standard CYP51 reaction conditions; ref Lepesheva et al., 2007; cited from earlier work
human CYP51 [9] = settings: standard CYP51 reaction conditions; ref Lepesheva et al., 2008; cited from earlier work
[10] = system: T. cruzi CYP51 gene expression; settings: ref Lepesheva et al., 2010a; cited from earlier work
Trypanosoma cruzi = settings: ref Villalta et al., submitted for publication; cited from earlier work
T. brucei = settings: ref Lepesheva et al., 2010b; cited from earlier work
human CYP3A4 [11] = target: T1, human CYP3A4; assay: Inhibitory effect on CYP3A4
[12] = Growth inhibition assay using 5-bromodeoxyuridine incorporation; assay type: cell-based, mouse; settings: mouse

## VNI/VNF combination
Human CYP51 [1]
  CYP51 inhibition, Human (inhibitor/enzyme molar ratio for 50% inhibition): 15 ± 0.9
[2]
  Mammalian cell growth: % of viable 3T3 cells at 50 μM: 77.2 ± 6.3%
Human CYP3A4 [3]
  IC50: 3580 ± 271 nM

## O=C(N[C@@H](Cn1ccnc1)c1ccc(Cl)cc1Cl)c1ccc(-c2nnc(-c3ccccc3)o2)cc1 [VNI, (R)-N-(1-(2,4-dichlorophenyl)-2-(1H-imidazol-1-yl)ethyl)-4-(5-phenyl-1,3,4-oxadiazol-2-yl)benzamide]
T. cruzi CYP51 [4]
  Kd: 90 ± 10 nM
Human CYP51 [1]
  CYP51 inhibition, Human (inhibitor/enzyme molar ratio for 50% inhibition): >200
[2]; 50 µM
  Mammalian cell growth: % of viable 3T3 cells at 50 μM: 76.8 ± 2.1%
[5]
  concentration at 2 h: 40 µM
  concentration at 8 h: > 20 µM
[6]
  NOAEL at 48 h: 400 mg/kg
[7]
  mortality: neither leads to mortality
T. cruzi CYP51 [8]
  inhibition of T. cruzi CYP51 activity at 1:1 molar ratio to the enzyme: completely inhibit
T. brucei CYP51
  inhibition of T. brucei CYP51 activity at 1:1 molar ratio to the enzyme: completely inhibit
Human CYP51 [9]
  inhibition of the human CYP51 ortholog: do not inhibit
[10]
  induction of T. cruzi CYP51 gene expression: do not induce
Trypanosoma cruzi
  effect in the murine model of Chagas disease: Curative effect
T. brucei
  parasitemia in the mouse model of T. brucei infection: slows down parasitemia
Human CYP3A4 [11]
  IC50: 405 ± 23 nM

## CC(=O)N1CCN(c2ccc(OCC3COC(Cn4ccnc4)(c4ccc(Cl)cc4Cl)O3)cc2)CC1 (stereo not drawn) [Ketoconazole, reference compound]
[12]
  viability at 24 h, 50 µM: 0%

## O=C(N[C@H](Cn1ccnc1)c1ccc(Cl)cc1Cl)c1ccc(-c2nnc(-c3ccccc3)o2)cc1 (single isomer, unassigned) [VNI S-enantiomer]
Human CYP51 [1]
  CYP51 inhibition, Human (inhibitor/enzyme molar ratio for 50% inhibition): >200
[2]
  Mammalian cell growth: % of viable 3T3 cells at 50 μM: 77.1 ± 2.6%
Human CYP3A4 [3]
  IC50: 290 ± 19 nM
